Each structure is given as a SMILES string. pIC50, pKi: −log10 of the molar value. Where only a bound is given, the exact number is not on record here.

The results in this text go back to ChEMBL document CHEMBL4673336, “Design, synthesis and stepwise optimization of nitrile-based inhibitors of cathepsins B and L” (Bioorg Med Chem, 2021).

Assay [1] deals with T1, Procathepsin L (Homo sapiens, UniProt P07711). In words: Inhibition of human cathepsin L.
Target sequence in this assay (P07711 whole entry): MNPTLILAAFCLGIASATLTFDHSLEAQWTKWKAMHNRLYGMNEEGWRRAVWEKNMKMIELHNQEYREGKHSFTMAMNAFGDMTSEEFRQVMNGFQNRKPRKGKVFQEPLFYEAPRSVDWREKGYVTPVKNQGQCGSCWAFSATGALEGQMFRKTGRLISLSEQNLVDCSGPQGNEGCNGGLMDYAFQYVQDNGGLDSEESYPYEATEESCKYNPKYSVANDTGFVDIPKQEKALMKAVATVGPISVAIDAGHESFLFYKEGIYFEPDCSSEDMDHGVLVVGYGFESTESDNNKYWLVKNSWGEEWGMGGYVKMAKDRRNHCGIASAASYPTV
The target of assay [2] is T2, Cathepsin S (Homo sapiens, UniProt P25774). In words: Inhibition of human cathepsin S.
Target sequence in this assay (P25774 whole entry): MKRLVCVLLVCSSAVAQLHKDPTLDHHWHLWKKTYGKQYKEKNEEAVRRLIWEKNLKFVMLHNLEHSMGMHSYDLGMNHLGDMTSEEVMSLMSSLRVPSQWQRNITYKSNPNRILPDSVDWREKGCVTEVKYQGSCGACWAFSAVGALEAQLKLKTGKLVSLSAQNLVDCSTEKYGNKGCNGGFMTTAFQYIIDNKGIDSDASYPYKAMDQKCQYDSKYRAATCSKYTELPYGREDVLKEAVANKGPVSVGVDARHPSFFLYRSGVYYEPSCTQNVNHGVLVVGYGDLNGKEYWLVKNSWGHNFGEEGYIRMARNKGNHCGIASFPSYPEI
A further assay deals with T3, Cathepsin K (Homo sapiens, UniProt P43235).
T3 sequence (P43235 whole entry): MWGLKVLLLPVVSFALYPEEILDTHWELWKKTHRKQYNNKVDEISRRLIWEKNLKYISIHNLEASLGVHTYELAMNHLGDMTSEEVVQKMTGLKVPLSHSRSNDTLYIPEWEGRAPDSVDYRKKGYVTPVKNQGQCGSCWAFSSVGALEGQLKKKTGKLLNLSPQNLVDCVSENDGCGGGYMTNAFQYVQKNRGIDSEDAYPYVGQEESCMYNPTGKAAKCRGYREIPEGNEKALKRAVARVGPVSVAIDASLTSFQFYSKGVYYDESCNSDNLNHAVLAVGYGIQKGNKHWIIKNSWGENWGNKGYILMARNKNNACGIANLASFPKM
In words: Inhibition of recombinant human cathepsin K using Z-Leu-Arg-AMC as substrate measured after 20 mins.

Assay [3] addresses T4, Cathepsin B (Homo sapiens, UniProt P07858). Briefly: Inhibition of human cathepsin B using Z-Phe-Arg-AMC fluorogenic peptide as substrate preincubated for 2 mins followed by substrate addition and measured for 5 mins by fluorescence assay.
In assay [4] the target is T5, Cathepsin K (Homo sapiens) (UniProt P43235).
T5 sequence (whole entry): T3 sequence (P43235 whole entry)
Briefly: Inhibition of recombinant human cathepsin K at 10 uM using Z-Leu-Arg-AMC as substrate measured after 20 mins relative to control.

Assay [5] concerns the target T4, Cathepsin B. In words: Inhibition of human cathepsin B at 10 uM using Z-Phe-Arg-AMC fluorogenic peptide as substrate preincubated for 2 mins followed by substrate addition and measured for 5 mins by fluorescence assay relative to control. The conditions noted are these: time 7.0 min.
Assay [6] addresses T1, Procathepsin L. Briefly: Inhibition of human cathepsin L at 10 uM relative to control.
Target sequence in this assay (P07711 114-333 limits assumed): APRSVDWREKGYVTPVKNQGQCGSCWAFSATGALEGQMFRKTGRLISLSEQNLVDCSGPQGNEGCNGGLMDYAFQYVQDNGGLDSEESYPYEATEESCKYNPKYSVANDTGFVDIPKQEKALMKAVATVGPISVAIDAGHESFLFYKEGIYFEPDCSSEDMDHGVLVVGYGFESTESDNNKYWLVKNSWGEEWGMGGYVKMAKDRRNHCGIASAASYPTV
The target of assay [7] is Cathepsin (S and K) (Homo sapiens) (UniProt P25774+P43235). In words: Selectivity index, ratio of pKi for human cathepsin S to pKi for recombinant human cathepsin K using Z-Leu-Arg-AMC as substrate measured after 20 mins. It is filed as protein assay.
Cathepsin (S and K) (Homo sapiens), sequence (P25774 whole entry, looked up, one chain of several): as the sequence (P25774 whole entry) above
Assay [8] is filed under the species Homo sapiens. Briefly: Selectivity index, ratio of pKi for human cathepsin S to pKi for human cathepsin L.
The species named for assay [9] is Homo sapiens. Briefly: Selectivity index, ratio of pKi for human cathepsin S to pKi for human cathepsin B using Z-Phe-Arg-AMC fluorogenic peptide as substrate preincubated for 2 mins followed by substrate addition and measured for 5 mins by fluorescence assay. The conditions noted are these: time 7.0 min.
In assay [10] the target is T4, Cathepsin B. In words: Inhibition of human cathepsin B at pH 4.5 using Z-Phe-Arg-AMC fluorogenic peptide as substrate preincubated for 2 mins followed by substrate addition and measured for 5 mins by fluorescence assay.
For assay [11], the target named is T4, Cathepsin B. Briefly: Inhibition of human cathepsin B at pH 6 using Z-Phe-Arg-AMC fluorogenic peptide as substrate preincubated for 2 mins followed by substrate addition and measured for 5 mins by fluorescence assay.
The species named for assay [12] is Homo sapiens. Briefly: Selectivity index, ratio of pKi for human cathepsin B using Z-Phe-Arg-AMC fluorogenic peptide as substrate preincubated for 2 mins followed by substrate addition and measured for 5 mins by fluorescence assay to pKi for human cathepsin L. The note with it: time 7.0 min.
Assay [13] has as its target T2, Cathepsin S. Briefly: Inhibition of human cathepsin S at 10 uM relative to control.
Target sequence in this assay (P25774 115-331 limits assumed): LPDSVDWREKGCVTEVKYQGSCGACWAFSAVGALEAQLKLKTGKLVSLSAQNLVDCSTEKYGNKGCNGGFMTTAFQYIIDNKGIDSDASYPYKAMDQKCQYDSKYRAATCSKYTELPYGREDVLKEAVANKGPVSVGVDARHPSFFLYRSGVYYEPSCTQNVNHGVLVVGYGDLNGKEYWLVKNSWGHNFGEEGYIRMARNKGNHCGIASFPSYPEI

As for `C[C@@H](OCc1ccccc1)[C@@H](C#N)NC(=O)[C@H](Cc1cccc(Cl)c1)NS(=O)(=O)c1cccc(Br)c1`, the negative logarithm of the Ki (pKi) on Procathepsin L [1] is 9.60; on Cathepsin S [2] it was 7.10; on Cathepsin K, 6.20; on Cathepsin B [3] it was 7.40.
The matching figures for `C[C@@H](OCc1ccccc1)[C@@H](C#N)NC(=O)[C@H](Cc1cccc(Br)c1)NC(=O)c1cccc(-c2cccnc2)c1`: 7.70, 7.70, less than 5.00 and 7.50.
On to `C[C@@H](OCc1ccccc1)[C@@H](C#N)NC(=O)[C@H](Cc1cccc(Cl)c1)NC(=O)c1cccc(-c2cncnc2)c1`, for which the pKi on Procathepsin L [1] was 7.70; at Cathepsin S [2], 7.80; on Cathepsin K it was less than 5.00; at Cathepsin B [3] it was 7.20. In addition, the inhibition in assay [4] came to 82%.
Consider `C[C@@H](OCc1ccccc1)[C@@H](C#N)NC(=O)[C@H](Cc1cccc(Cl)c1)NC(=O)c1cccc(-c2ccccc2)c1`, for which the pKi at Procathepsin L [1] is 7.30; at Cathepsin S [2], 7.30; at Cathepsin K, less than 5.00; at Cathepsin B [3] it was 6.90.
For `C[C@@H](OCc1ccccc1)[C@@H](C#N)NC(=O)[C@H](Cc1cccc(Br)c1)NC(=O)c1cc(C(C)(C)C)nn1C`, the pKi was 9.30 at Procathepsin L [1], 6.80 on Cathepsin S [2], 5.60 at Cathepsin K and 6.80 at Cathepsin B [3].
As for `C[C@@H](OCc1ccccc1)[C@@H](C#N)NC(=O)[C@H](Cc1cccc(Cl)c1)NS(=O)(=O)c1cccc(-c2ccccc2)c1`, the pKi on Procathepsin L [1] was 6.70; at Cathepsin S [2], 6.20; at Cathepsin K it was less than 5.00; at Cathepsin B [3], 7.60.
With `C[C@@H](OCc1ccccc1)[C@@H](C#N)NC(=O)[C@H](Cc1cccc(Br)c1)NC(=O)Cc1ccc(-c2ccccc2)cc1`, the pKi is less than 5.00 at Procathepsin L [1], 6.30 on Cathepsin S [2], less than 5.00 at Cathepsin K and less than 5.00 at Cathepsin B [3]. The inhibition against Cathepsin B [5] was more than 90%; at Procathepsin L [6], 59%; in [4], more than 90%. The Ratio pKi (in [7]; in the assay listed under Homo sapiens [8]; in the assay filed under Homo sapiens [9]) was more than 50 each time.
Turning to `C[C@@H](OCc1ccccc1)[C@@H](C#N)NC(=O)[C@H](Cc1cccc(Br)c1)NC(=O)c1ccc(-c2cncnc2)cc1`, the pKi was 7.70 at Procathepsin L [1], 7.50 on Cathepsin S [2], 5.30 at Cathepsin K and 7.90 at Cathepsin B [3].
As to `C[C@@H](OCc1ccccc1)[C@@H](C#N)NC(=O)[C@H](Cc1cccc(Cl)c1)NC(=O)c1ccc(Br)cc1`, the negative-log Ki (pKi) at Procathepsin L [1] was 8.10; on Cathepsin S [2] it was 6.90; on Cathepsin K it was 5.30; at Cathepsin B [3] it was 7.90.
Take `C[C@@H](OCc1ccccc1)[C@@H](C#N)NC(=O)[C@H](Cc1cccc(Cl)c1)NC(=O)c1ccc(-c2cncnc2)cc1`: the pKi on Procathepsin L [1] is 7.80; at Cathepsin S [2] it was 7.20; at Cathepsin K it was 5.20; at Cathepsin B [3], 7.90.
As to `C[C@@H](OCc1ccccc1)[C@@H](C#N)NC(=O)[C@H](Cc1cccc(Cl)c1)NC(=O)c1ccc(-c2ccccc2)cc1`, the negative-log Ki (pKi) on Procathepsin L [1] is less than 5.00; at Cathepsin S [2], 7.10; on Cathepsin K, 5.80; at Cathepsin B [3], 7.50. Moreover, the pIC50 was 7.37 against Cathepsin B [10] and 7.24 at Cathepsin B [11]. Further, the inhibition on Procathepsin L [6] amounted to 61%.
For `C[C@@H](OCc1ccccc1)[C@@H](C#N)NC(=O)[C@H](Cc1c[nH]c2ccccc12)NC(=O)c1ccc(-c2ccccc2)cc1`, the pKi is 6.10 on Procathepsin L [1], 6.80 at Cathepsin S [2], less than 5.00 at Cathepsin K and 7.30 on Cathepsin B [3]. In [4], the inhibition came out at 70%. The Ratio pKi in the assay filed under Homo sapiens [12] stood at 12.
On to `C[C@@H](OCc1ccccc1)[C@@H](C#N)NC(=O)[C@H](Cc1cccc(Cl)c1)NC(=O)c1cccc(-c2cccnc2)c1`, for which the pKi on Procathepsin L [1] is 9.00; on Cathepsin S [2] it was 7.90; on Cathepsin K, less than 5.00; on Cathepsin B [3], 8.30. In addition, the pIC50 was 7.48 on Cathepsin B [10] and 8.05 on Cathepsin B [11].
Regarding `C[C@@H](OCc1ccccc1)[C@@H](C#N)NC(=O)[C@H](Cc1cccc(Br)c1)NC(=O)c1ccc(-c2ccccc2)cc1`, the negative logarithm of the Ki (pKi) at Procathepsin L [1] was less than 5.00; at Cathepsin S [2], 6.30; at Cathepsin K, less than 5.00; on Cathepsin B [3], 7.30. Besides, the pIC50 was 7.40 against Cathepsin B [10] and 7.03 at Cathepsin B [11]. Besides, the inhibition is 55% at Procathepsin L [6] and more than 90% in assay [4].
For the compound `C[C@@H](OCc1ccccc1)[C@@H](C#N)NC(=O)[C@H](Cc1cccc(Cl)c1)NS(=O)(=O)c1ccc(-c2ccccc2)cc1`, the negative-log Ki (pKi) at Procathepsin L [1] is 6.80; at Cathepsin S [2], 6.30; at Cathepsin K, 5.00; on Cathepsin B [3] it was 6.70.
On to `C[C@@H](OCc1ccccc1)[C@@H](C#N)NC(=O)[C@H](Cc1ccc(Br)cc1)NC(=O)c1ccc(-c2ccccc2)cc1`, for which the pKi on Procathepsin L [1] is less than 5.00; on Cathepsin S [2] it was less than 5.00; at Cathepsin K, less than 5.00; on Cathepsin B [3], 6.80. For the same compound, the inhibition was more than 90% at Procathepsin L [6], 51% in assay [4] and 86% at Cathepsin S [13].
Take `C[C@@H](OCc1ccccc1)[C@@H](C#N)NC(=O)[C@H](Cc1cccc(Br)c1)NC(=O)c1ccc(-c2cccnc2)cc1`: the pKi on Procathepsin L [1] was 7.70; at Cathepsin S [2] it was 7.40; at Cathepsin K it was less than 5.00; on Cathepsin B [3] it was 7.90. Also, the inhibition in assay [4] amounted to 84%.
In the case of `C[C@@H](OCc1ccccc1)[C@@H](C#N)NC(=O)[C@H](Cc1cccc(Cl)c1)NC(=O)c1cccc(Br)c1`, the pKi at Procathepsin L [1] was 9.20; on Cathepsin S [2], 7.80; at Cathepsin K it was 5.40; at Cathepsin B [3], 7.20.

For orientation: pKi means −log10 of the Ki, conventionally taken in molar units. By inhibition is commonly meant how much of the control response was suppressed. In general, pIC50 refers to the IC50 on a negative log10 scale, so that one unit is a factor of ten.
